From patent publication US20260130906A1, “THERAPY COMPRISING ANTI-CD19 ANTIBODY AND SUMO-ACTIVATING ENZYME INHIBITOR” (TAKEDA PHARMACEUTICAL COMPANY LIMITED, priority 2021, published 2026) come the findings set out here.

Assay [1] has as its target SUMO-activating enzyme (Homo sapiens, UniProt Q9UBT2). Kind of assay: Biochemical assays of SUMO-activating enzyme inhibition. From the text:
(§1) SAE inhibitors, as disclosed herein, are described, for example, in US 2016/0009744 and U.S. Pat. No. 9,695,154 which is hereby incorporated by reference in its entirety. They may be prepared by methods known to one skilled in the art and/or according to the methods described in US 2016/0009744 and U.S. Pat. No. 9,695,154 . . . . Central to the mechanism of action of useful SAE inhibitors, such as Compound I-263a, in combinations and methods of the present disclosure is production of type 1 IFNs and induction of an innate immune response with activation of both natural killer (NK) cells and macrophages.

In assay [2] the test system is SUMO-activating enzyme and SUMOylation. Put plainly: Inhibition of SAE and SUMOylation in cultured tumor cell lines. It counts as cell-based. The following applies: cultured mouse and human tumor cell lines.
Description: as §1

Chain of SUMO-activating enzyme (Q9UBT2 whole entry): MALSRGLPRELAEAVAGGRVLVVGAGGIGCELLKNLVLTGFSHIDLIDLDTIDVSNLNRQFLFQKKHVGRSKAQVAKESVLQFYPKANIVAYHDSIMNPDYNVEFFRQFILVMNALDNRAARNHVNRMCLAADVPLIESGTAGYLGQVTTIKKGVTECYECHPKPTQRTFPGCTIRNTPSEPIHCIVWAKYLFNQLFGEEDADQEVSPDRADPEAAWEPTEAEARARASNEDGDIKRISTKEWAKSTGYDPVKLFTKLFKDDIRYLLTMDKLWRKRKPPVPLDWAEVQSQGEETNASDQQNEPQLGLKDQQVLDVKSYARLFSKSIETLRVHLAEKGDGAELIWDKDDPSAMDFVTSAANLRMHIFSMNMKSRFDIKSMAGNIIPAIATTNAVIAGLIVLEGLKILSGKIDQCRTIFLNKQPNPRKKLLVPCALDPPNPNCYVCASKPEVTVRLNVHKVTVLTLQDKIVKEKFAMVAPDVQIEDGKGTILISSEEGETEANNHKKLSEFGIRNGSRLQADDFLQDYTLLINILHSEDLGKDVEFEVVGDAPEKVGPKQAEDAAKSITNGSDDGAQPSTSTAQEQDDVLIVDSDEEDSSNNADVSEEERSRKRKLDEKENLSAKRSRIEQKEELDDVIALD
Chain of SUMO-activating enzyme (Q9UBE0 whole entry partner): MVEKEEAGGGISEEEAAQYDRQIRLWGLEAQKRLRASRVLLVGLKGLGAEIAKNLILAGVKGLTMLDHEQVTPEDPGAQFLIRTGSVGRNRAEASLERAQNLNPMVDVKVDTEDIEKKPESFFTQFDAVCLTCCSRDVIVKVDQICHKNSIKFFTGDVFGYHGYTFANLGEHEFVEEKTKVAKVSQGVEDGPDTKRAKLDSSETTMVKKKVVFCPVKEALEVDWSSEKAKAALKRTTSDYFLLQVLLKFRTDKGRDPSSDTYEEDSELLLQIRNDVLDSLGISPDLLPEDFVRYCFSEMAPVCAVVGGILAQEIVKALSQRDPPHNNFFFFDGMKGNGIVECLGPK
Chain of SUMO-activating enzyme (P63165 1-97 partner limits assumed): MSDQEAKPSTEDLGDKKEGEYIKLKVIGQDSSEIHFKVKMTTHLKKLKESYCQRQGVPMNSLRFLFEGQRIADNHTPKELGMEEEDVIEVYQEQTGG

Take `Cc1sc(C(=O)c2cncnc2N[C@@H]2C[C@H](COS(N)(=O)=O)[C@@H](O)C2)cc1[C@@H]1NCCc2ccc(Cl)cc21` [Compound I-263a, [(1R,2S,4R)-4-{[5-({4-[(1R)-7-chloro-1,2,3,4-tetrahydroisoquinolin-1-yl]-5-methyl-2-thienyl}carbonyl)pyrimidin-4-yl]amino}-2-hydroxycyclopentyl]methyl sulfamate]: in assay [1] (mechanism-based, covalent adduct with SUMO), the “inhibition of SUMO-activating enzyme activity” value is “potently inhibits enzyme activity”. Moreover, the “selectivity for SUMO-activating enzyme” value in assay [1] (over ubiquitin-activating enzyme, Nedd8-activating enzyme, autophagy related 7 enzyme) was “Strong selectivity”. In addition, the “inhibition of SUMO-activating enzyme and SUMOylation” value in assay [2] was “Selective and potent inhibition”.
